Article PMC11579541, “In vitro, in vivo, and in silico approaches for evaluating the preclinical DMPK profiles of ammoxetine, a novel chiral serotonin and norepinephrine reuptake inhibitor” (Frontiers in Pharmacology, 2024)

Experiments:
Type in all cases: in vitro ADME
[1] = biological target: T1, CYP 2C9 (Homo sapiens, UniProt P11712); assay: CYP inhibition, cocktail-substrate method in HLM; parameters: 0.5 mg/mL HLM, 1 mmol/L NADPH, and a cocktail of 10 probe substrates for 9 CYP isoforms; tissue BD (Woburn, USA); host or cells: pooled human liver microsomes; conditions: probe tolbutamide
T1 sequence (P11712 whole entry, canonical isoform): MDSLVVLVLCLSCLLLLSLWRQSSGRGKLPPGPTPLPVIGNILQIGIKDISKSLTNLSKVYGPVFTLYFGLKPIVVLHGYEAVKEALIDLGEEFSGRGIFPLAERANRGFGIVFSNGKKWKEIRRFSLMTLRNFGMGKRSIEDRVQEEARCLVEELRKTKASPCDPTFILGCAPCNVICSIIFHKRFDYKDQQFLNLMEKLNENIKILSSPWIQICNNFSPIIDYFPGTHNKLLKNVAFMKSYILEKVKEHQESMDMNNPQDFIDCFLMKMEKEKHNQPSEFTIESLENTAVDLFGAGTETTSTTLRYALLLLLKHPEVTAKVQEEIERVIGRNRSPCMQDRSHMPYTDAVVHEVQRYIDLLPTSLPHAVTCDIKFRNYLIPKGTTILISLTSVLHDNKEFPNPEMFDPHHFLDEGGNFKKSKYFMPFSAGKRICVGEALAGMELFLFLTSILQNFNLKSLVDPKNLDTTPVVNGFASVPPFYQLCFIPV
Protocol: (§1) To assess the CYP inhibition profiling of ammoxetine, a high-throughput assay based on the cocktail-substrate method was performed, as described in the literature ([Kim et al., 2005]; [Kozakai et al., 2014]). Microsomal incubations were conducted in triplicate for 30 min at 37°C in a reaction system (200 μL) consisting of […] potassium phosphate buffer (pH 7.4), 0.5 mg/mL HLM, 1 mmol/L NADPH, and a cocktail of 10 probe substrates for 9 CYP isoforms. The final concentration of each CYP-specific substrate was chosen to be close to the Michaelis-Menten constant (K m ) value of the respective substrate ([Kim et al., 2005]; [Lee et al., 2024]). For instance, phenacetin (CYP 1A2) was used at a concentration of 50 μmol/L, coumarin (CYP 2A6) at 5 μmol/L, bupropion (CYP 2B6) at 50 μmol/L, amodiaquine (CYP 2C8) at 5 μmol/L, tolbutamide (CYP 2C9) at 100 μmol/L, S-mephenytoin (CYP 2C19) at 100 μmol/L, dextromethorphan (CYP 2D6) at 5 μmol/L, chlorzoxazone (CYP 2E1) at 50 μmol/L, and testosterone and midazolam (CYP 3A4) at 50 μmol/L. Ammoxetine was evaluated at five concentrations: 0.1, 1, 10, 50, and 100 μmol/L. Additionally, a blank control without ammoxetine was included. The incubation was terminated by adding an equal volume of ice-cold acetonitrile/methanol (1:1, v/v) along with the IS, dexmedetomidine (1 ng/mL). After a 20-fold dilution, the mixture was centrifuged at 13,800×g for 10 min at 4°C. The supernatants were used to measure the levels of metabolites from the respective probe substrates using an LC-MS-MS method. The half-maximal inhibitory concentration (IC50) values were subsequently calculated.

[2] = biological target: CYP 3A4 (Homo sapiens, UniProt P08684); assay: CYP inhibition, cocktail-substrate method in HLM; parameters: 0.5 mg/mL HLM, 1 mmol/L NADPH, and a cocktail of 10 probe substrates for 9 CYP isoforms; tissue BD (Woburn, USA); host or cells: pooled human liver microsomes; conditions: probes testosterone and midazolam
Chain of CYP 3A4 (P08684 whole entry, canonical isoform): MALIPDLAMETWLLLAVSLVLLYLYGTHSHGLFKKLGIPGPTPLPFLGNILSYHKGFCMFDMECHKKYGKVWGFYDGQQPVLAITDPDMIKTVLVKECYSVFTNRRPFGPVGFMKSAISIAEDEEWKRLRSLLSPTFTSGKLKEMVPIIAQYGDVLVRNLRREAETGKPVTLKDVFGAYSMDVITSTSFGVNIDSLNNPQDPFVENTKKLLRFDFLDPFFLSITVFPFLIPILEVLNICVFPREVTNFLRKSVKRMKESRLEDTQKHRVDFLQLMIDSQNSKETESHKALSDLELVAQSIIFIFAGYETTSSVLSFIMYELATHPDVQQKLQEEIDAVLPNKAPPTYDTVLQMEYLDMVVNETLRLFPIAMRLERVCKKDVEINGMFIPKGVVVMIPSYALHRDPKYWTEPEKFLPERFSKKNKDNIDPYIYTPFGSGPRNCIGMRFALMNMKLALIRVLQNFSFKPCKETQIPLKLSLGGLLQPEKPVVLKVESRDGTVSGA
Protocol: as §1

[3] = biological target: T2, CYP 1A2 (Homo sapiens, UniProt P05177); assay: CYP inhibition, cocktail-substrate method in HLM; parameters: 0.5 mg/mL HLM, 1 mmol/L NADPH, and a cocktail of 10 probe substrates for 9 CYP isoforms; tissue BD (Woburn, USA); host or cells: pooled human liver microsomes
T2 sequence (P05177 1-516): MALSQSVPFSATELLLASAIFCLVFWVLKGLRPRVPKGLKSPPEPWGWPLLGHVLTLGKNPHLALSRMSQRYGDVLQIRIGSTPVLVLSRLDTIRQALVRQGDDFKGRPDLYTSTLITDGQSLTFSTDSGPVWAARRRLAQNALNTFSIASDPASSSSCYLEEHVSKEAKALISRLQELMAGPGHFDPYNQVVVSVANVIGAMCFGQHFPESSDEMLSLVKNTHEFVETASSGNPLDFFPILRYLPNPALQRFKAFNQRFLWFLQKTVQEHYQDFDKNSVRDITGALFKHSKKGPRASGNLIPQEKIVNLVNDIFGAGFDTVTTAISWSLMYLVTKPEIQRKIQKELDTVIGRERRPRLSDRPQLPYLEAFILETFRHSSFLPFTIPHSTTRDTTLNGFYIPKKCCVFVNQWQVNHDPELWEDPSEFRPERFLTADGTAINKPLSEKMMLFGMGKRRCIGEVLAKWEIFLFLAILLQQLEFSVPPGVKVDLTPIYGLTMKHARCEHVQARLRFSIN
Protocol: as §1

[4] = biological target: CYP 2D6 (Homo sapiens, UniProt P10635); assay: CYP inhibition, cocktail-substrate method in HLM; parameters: 0.5 mg/mL HLM, 1 mmol/L NADPH, and a cocktail of 10 probe substrates for 9 CYP isoforms; tissue BD (Woburn, USA); host or cells: pooled human liver microsomes
Chain of CYP 2D6 (P10635 whole entry, canonical isoform): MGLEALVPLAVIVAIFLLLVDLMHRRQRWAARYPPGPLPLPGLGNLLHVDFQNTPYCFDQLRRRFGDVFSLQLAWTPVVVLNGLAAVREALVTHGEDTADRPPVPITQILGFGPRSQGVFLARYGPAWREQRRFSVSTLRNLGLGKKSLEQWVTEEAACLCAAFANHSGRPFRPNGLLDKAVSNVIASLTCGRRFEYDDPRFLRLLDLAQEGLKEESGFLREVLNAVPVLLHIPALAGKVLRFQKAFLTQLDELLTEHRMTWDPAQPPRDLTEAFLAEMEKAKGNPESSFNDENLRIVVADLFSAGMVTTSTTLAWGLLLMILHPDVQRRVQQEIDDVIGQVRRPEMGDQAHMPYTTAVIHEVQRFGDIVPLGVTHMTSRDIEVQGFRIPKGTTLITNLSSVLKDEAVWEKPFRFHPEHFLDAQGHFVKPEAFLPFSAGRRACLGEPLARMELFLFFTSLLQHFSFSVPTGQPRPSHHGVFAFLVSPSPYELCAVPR
Protocol: as §1

[5] = biological target: CYP 2C19 (Homo sapiens, UniProt P33261); assay: CYP inhibition, cocktail-substrate method in HLM; parameters: 0.5 mg/mL HLM, 1 mmol/L NADPH, and a cocktail of 10 probe substrates for 9 CYP isoforms; tissue BD (Woburn, USA); host or cells: pooled human liver microsomes; conditions: probe S-mephenytoin
Chain of CYP 2C19 (P33261 whole entry, canonical isoform): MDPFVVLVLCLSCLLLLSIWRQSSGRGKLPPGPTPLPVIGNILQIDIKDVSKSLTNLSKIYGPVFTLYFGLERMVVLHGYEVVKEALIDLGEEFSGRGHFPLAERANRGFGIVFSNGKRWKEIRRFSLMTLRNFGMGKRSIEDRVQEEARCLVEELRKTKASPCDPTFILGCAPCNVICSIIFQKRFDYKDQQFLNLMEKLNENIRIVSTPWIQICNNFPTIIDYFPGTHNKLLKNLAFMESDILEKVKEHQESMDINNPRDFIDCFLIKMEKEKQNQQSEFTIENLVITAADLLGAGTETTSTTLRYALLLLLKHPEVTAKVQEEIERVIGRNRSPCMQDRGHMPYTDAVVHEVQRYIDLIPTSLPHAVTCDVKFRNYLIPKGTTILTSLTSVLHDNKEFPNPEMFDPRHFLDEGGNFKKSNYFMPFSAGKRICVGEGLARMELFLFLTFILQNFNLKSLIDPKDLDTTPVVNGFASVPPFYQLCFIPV
Protocol: as §1

[6] = biological target: T1, CYP 2C9; assay: Phenotyping with recombinant human CYP 2C9; parameters: purchased BD (Woburn, USA); conditions: 5 μmol/L, 25 pmol/mL CYP, 1 h
Protocol: Ammoxetine (final concentration 5 μmol/L) was incubated with recombinant human CYP 3A4, CYP 1A2, CYP 2C9, CYP 2C19, and CYP 2D6 (final concentration 25 pmol/mL) in a 5 mmol/L K2HPO4 buffer at pH 7.4. The incubations were performed in quintuplicate. NADPH (final concentration 1 mmol/L) was added to initiate the incubation process. The mixture was then incubated at 37°C for 1 h. To stop the reaction, 200 μL of ice-cold acetonitrile/methanol (1:1, v/v) containing 500 ng/mL of L-phencynonate (IS) was added. The samples were vortexed for 2 min and centrifuged at 13,800×g and 4°C for 10 min. The supernatants obtained were analyzed using an LC-MS-MS method. To establish appropriate controls, zero-time controls and blank controls in the absence of NADPH were set up in parallel.

[7] = biological target: T3, CYP 2E1 (Homo sapiens, UniProt P05181); assay: CYP inhibition, cocktail-substrate method in HLM; conditions: probe chlorzoxazone
T3 construct: 0.5 mg/mL HLM, 1 mmol/L NADPH, and a cocktail of 10 probe substrates for 9 CYP isoforms; tissue BD (Woburn, USA); host or cells: pooled human liver microsomes
T3 sequence (P05181 whole entry, canonical isoform): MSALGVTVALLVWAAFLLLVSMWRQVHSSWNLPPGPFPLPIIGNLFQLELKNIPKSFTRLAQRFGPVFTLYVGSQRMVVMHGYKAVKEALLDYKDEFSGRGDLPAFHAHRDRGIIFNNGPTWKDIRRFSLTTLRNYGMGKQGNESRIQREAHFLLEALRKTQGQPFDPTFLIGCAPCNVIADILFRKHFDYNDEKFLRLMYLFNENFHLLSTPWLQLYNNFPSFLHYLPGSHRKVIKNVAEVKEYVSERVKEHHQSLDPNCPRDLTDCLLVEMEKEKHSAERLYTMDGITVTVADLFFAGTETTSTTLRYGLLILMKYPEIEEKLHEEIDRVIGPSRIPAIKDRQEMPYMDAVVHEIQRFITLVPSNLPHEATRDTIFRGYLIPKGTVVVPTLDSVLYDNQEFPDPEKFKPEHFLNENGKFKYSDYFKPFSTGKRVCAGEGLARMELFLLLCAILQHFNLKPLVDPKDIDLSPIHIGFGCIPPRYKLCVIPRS
Protocol: as §1

IC50 [1]: > 100 µM | IC50 [2]: > 100 µM | IC50 ([3]; HLM, probe phenacetin): > 100 µM | probe substrate levels, % of the original blank group ([3]; ammoxetine 100 μmol/L): ~72.30% | IC50 ([4]; HLM, probe dextromethorphan): > 100 µM | probe substrate levels, % of the original blank group ([4]; ammoxetine 100 μmol/L): approximately 65.86% | IC50 [5]: > 100 µM | Transformation ratio% [6]: 13.02±7.14% | residuary concentration of ammoxetine, Mean±SD [6]: 5.96±0.49 | IC50 [7]: > 100 µM
Structure (SMILES): CNCC[C@H](Oc1cccc2c1OCO2)c1cccs1 [ammoxetine]
